Patent US20050089524A1, “Compositions and compounds for use as molecular adjuvant for a nicotine vaccine” (priority 2002, published 2005)
Square brackets hold non-standard residues; d marks the D form. Peptide text beside a SMILES is read from it.

Tests used:
[1] = tested on: human umbilical artery; assay: Smooth muscle contraction of human umbilical artery; type: cell-based
Procedure: (§1) Pharmacologic assays. […] Statistical analysis of the values obtained from pharmacologic assays was performed using one-way analysis of variance (ANOVA).

[2] = tested on: human PMNs; assay: MPO release from human PMNs; type: cell-based
Procedure: as §1

[3] = molecular target: T1, C5aR (Homo sapiens, UniProt P21730); assay: Binding affinity for C5aRs on human PMNs (125I-C5a competition)
T1 construct: endogenous in cells; host or cells: intact human PMNs (polymorphonuclear leukocytes)
T1 sequence (P21730 1-350): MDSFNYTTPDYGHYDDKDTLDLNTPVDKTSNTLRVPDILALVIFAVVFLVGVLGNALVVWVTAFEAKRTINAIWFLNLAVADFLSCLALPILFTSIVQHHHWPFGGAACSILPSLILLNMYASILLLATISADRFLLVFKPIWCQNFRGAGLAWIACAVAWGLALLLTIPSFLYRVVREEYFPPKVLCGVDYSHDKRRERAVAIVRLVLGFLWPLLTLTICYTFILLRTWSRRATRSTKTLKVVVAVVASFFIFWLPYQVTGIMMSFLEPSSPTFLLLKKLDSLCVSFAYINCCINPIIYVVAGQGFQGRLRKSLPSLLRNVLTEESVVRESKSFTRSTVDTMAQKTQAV
Procedure: Pharmacologic assays. C5a-like agonistic activity was assessed by the ability of the peptides to induce smooth muscle contraction of human umbilical artery and […] from human PMNs according to previously published methods (Sanderson et al., 1994, supra; Sanderson et al., J. Med. Chem. 38, 3669, 1995; Finch et al., J. Med. Chem. 40, 877, 1997). Full concentration-response curves were generated for individual peptides and natural C5a in each assay and the EC50 values (the concentration of peptide producing 50% of the maximal response to each peptide) were calculated. pD2 transforms [−log EC50 (M)] were calculated for each concentration-response curve and reported as the mean±SE. Peptide binding affinity to the C5aR was evaluated on intact human PMNs by a competition assay using ^125I-C5a according to previously described methods (Sanderson et al., 1995, supra; Finch et al., 1997, supra). Statistical analysis of the values obtained from pharmacologic assays was performed using one-way analysis of variance (ANOVA).

[4] = tested on: 51Cr-labeled P815S (HBsAg transfectant) target cells; assay: HBsAg-specific CTL response of immunized mice (51Cr-release assay); type: in vivo, BALB/c mice; details: for % Specific Lysis: s.c. in PBS, boost day 21, spleen cells day 42
[5] = tested on: immunizing peptide and free peptides; assay: ELISA of sera from mice immunized with HBsAg CTL epitope-C5a agonist constructs; type: in vivo; details: 1:50 dilution of the serum
Procedure: Immunization protocols. Groups of six to eight BALB/c mice were given bilateral s.c. injections in the inguinal area with (100 μl each side) of a PBS solution containing 50-100 μg of the peptides. Booster injections were given s.c. in the inguinal region at 21-day intervals. Sera for Ab analysis were obtained by retro-orbital bleeds of mice under CO2 narcosis.
Antibodies to the HBsAg CTL epitope or the C5a agonist are not produced by immunization with the HBsAg CTL epitope-C5a agonist constructs. […] Thus, it was of interest to determine whether sera from mice immunized with the control peptides and epitope-C5a agonist constructs contained antibody directed against any of the peptides. […] (SEQ ID NO: 12), […]

[6] = molecular target: C5a receptor (C5aR) expressed on the surface of human PMNs (human) (UniProt P21730); assay: cell-based or functional assay
[7] = molecular target: C5a receptor (C5aR) expressed on the surface of human PMNs (human) (UniProt P21730); assay: competition with 125I-C5a on intact human PMNs
[8] = molecular target: C5a receptor (C5aR) expressed on the surface of human PMNs (human) (UniProt P21730); assay: competition with 125I-C5a on intact human PMNs; concentration giving 50% inhibition of 125I-C5a binding
[9] = Anti-nicotine antibodies in immune serum of rats (ELISA); type: in vivo, Wistar rats
Procedure: ii. Animal Models. Five groups of male Wistar rats (ca 275 g) were immunized every other week with: 1) PBS 2) Nic-[…]aR (Nic-SEQ ID NO:1), 3) Nic-[…]aR (Nic-SEQ ID NO:1) in Freund's adjuvant, 4) Nic-[…]aR (Nic-SEQ ID NO:2), and 5) Nic-[…]aR (Nic-SEQ ID NO:2) in Freund's adjuvant. Primary immunizations were accomplished by subcutaneous (s.c.) and intrapertioneal (i.p.) injection of 100 μg of the peptides as indicated above in the presence or absences of complete Freund's adjuvant. Boosting was performed in identical fashion at two-week internals with 100 μg of the peptides in the presence of absence of Freund's adjuvant. Sera were obtained by retro-orbital sinus puncture one week after the third injection.

[10] = tested on: male Sprague-Dawley rats
[11] = molecular target: T2, C5a receptor (C5aR) expressed on the surface of human PMNs (human, UniProt P21730 1-350); assay: cell-based or functional assay
T2 sequence (looked up): T1 sequence (P21730 1-350)

[12] = molecular target: T2, C5a receptor (C5aR) expressed on the …; assay: cell-based or functional assay; remark: listed apart in the source
[13] = molecular target: T2, C5a receptor (C5aR) expressed on the …; assay: competition with 125I-C5a on intact human PMNs
Text: Pharmacologic activities.

[14] = molecular target: T2, C5a receptor (C5aR) expressed on the …; assay: competition with 125I-C5a on intact human PMNs; concentration giving 50% inhibition of 125I-C5a binding
[15] = 100 μg s.c. and i.p., sera one week after the third injection

CC[C@H](C)[C@H](N)C(=O)N1CCC[C@H]1C(=O)N[C@@H](CCC(N)=O)C(=O)N[C@@H](CO)C(=O)N[C@@H](CC(C)C)C(=O)N[C@@H](CC(=O)O)C(=O)N[C@@H](CO)C(=O)N[C@@H](Cc1c[nH]c2ccccc12)C(=O)N[C@@H](Cc1c[nH]c2ccccc12)C(=O)N[C@H](C(=O)N[C@@H](CO)C(=O)N[C@@H](CC(C)C)C(=O)N[C@@H](CCCNC(=N)N)C(=O)N[C@@H](CCCNC(=N)N)C(=O)N[C@@H](Cc1ccc(O)cc1)C(=O)N[C@@H](CO)C(=O)N[C@@H](Cc1ccccc1)C(=O)N[C@@H](CCCCN)C(=O)N1CCC[C@H]1C(=O)N[C@@H](CCSC)C(=O)N1CCC[C@H]1C(=O)N[C@@H](CC(C)C)C(=O)N[C@H](C)C(=O)N[C@@H](CCCNC(=N)N)C(=O)O)[C@@H](C)O (H-IPQSLDSWWTSLRRYSFKPMPL[dA]R-OH; N-terminus assumed)
EC50 ([1]; concentration resulting in 50% maximum contraction): 161 nM
pD2 ± SE ([1]; −log EC50 (M), mean ± SE, n 3): 6.79 ± 0.31
EC50 ([2]; concentration resulting in 50% maximum release of myeloperoxidase): 540 nM
pD2 ± SE ([2]; −log EC50 (M), mean ± SE, n 3): 6.27 ± 0.29
EC50 [3]: 416 nM
IC50 [3]: 417 nM
% Specific Lysis ([4]; Effector:Target Ratio 6.25:1): 9%
% Specific Lysis ([4]; Effector:Target Ratio 12.5:1): 14%
% Specific Lysis ([4]; Effector:Target Ratio 25:1): 23%
% Specific Lysis ([4]; Effector:Target Ratio 50:1): 32%
antigen-specific CTL response ([4]; three s.c. injections of 50 μg at 21 day intervals, no added adjuvant): generated an antigen-specific CTL response
serum binding to the free C5a agonist and CTL epitope peptides (ELISA) [5]: did not bind the free peptides

C5a C-terminal decapeptide agonist analog YSFKPMPLaR
smooth muscle contraction of human umbilical artery, EC50 [6]: 0.01 µM
smooth muscle contraction of human umbilical artery, pD2 (-log EC50 (M)) [6]: 6.99
pD2 (-log EC50 (M)) [7]: 5.63
EC50 [8]: 2340 nM

Nic-YKQGGFLGLYSFKPMPLaR [B-cell-C5a-Nic]
Modified Minus Unmodified, BSA [9, 15]: 0 ng/mL
Modified Minus Unmodified, BSA-Nic [9, 15]: 33,943 ng/ml
Raw Data, plate coated with BSA [9, 15]: 1,298 ng/ml
Raw Data, plate coated with BSA-Nic [9, 15]: 35,241 ng/ml
antibody reactivity on other nicotine-modified peptides ([9]; in the presence of Freund's adjuvant, FIG. 7): 172,647 ng/ml
dipper entries on nicotine sessions, first cycle ([10]; 1000 mg (500 mg s.c. and 500 mg i.p.) in saline, boosted weekly for 2 weeks, nicotine 0.4 mg/kg s.c.): significantly less dipper entries than non-vaccinated rats on nicotine Sessions 2 and 3
index of learning-elevation score for the first light ([10]; first cycle): does not differ between vaccinated and non-vaccinated rats
dipper entries on saline sessions ([10]; nicotine not present): does not differentially affect behavior in this preparation when nicotine is not present

B1: natural C5a (ligand, UniProt P01031 678-751, looked up)
chain: TLQKKIEEIAAKYKHSVVKKCCYDGACVNNDETCEQRAARISLGPRCIKAFTECCVVASQLRANISHKDMQLGR
smooth muscle contraction of human umbilical artery, EC50 [11]: 2 nM
smooth muscle contraction of human umbilical artery, pD2 (-log EC50 (M)) [11]: 8.77
MPO release from human PMNs, EC50 [12]: 3 nM
MPO release from human PMNs, pD2 (-log EC50 (M)) [12]: 8.5
pD2 (-log EC50 (M)) [13]: 9.43
EC50 [14]: 0.4 nM
